Experiment: Solubility of pesticides in solvents (stepwise 2% increments of pesticide powder)
Details: highest concentration still dissolved, no more than 2% lower than actual solubility; for Solubility in Comparative Solvent B: solvent: diethylene glycol monoethyl ether; for Solubility in Comparative Solvent A: solvent: dimethyl sulfoxide (DMSO); for Solubility in Comparative Solvent C: solvent: ethyl 3-ethoxypropionate
Description: The solubility of various pesticides in these solvents are evaluated.
Each pesticide powder is added by solvent in 2% stepwise increments to the final pesticide concentration. Each pesticide reaches a concentration where the pesticide powder is not dissolved by the solvent.

In the case of `CCCCC(C#N)(Cn1cncn1)c1ccc(Cl)cc1` (stereo not drawn) [Myclobutanil], the “Solubility in Comparative Solvent B” value is reported as 46.0 weight %, the “Solubility in Comparative Solvent A” value is reported as 56.7 weight % and the “Solubility in Comparative Solvent C” value is reported as 39.0 weight %.
For `CC(C)(C)C(=O)C(Oc1ccc(Cl)cc1)n1cncn1` (stereo not drawn) [Triazolone], the “Solubility in Comparative Solvent B” value was 35.7 weight %, the “Solubility in Comparative Solvent A” value was 43.3 weight % and the “Solubility in Comparative Solvent C” value was 32.0 weight %.
With `COC(=O)N(OC)c1ccccc1COc1ccn(-c2ccc(Cl)cc2)n1` [Pyraclostrobin] the “Solubility in Comparative Solvent B” value was 33.0 weight %, the “Solubility in Comparative Solvent A” value was 40.0 weight % and the “Solubility in Comparative Solvent C” value was 47.0 weight %.
In the case of `CC(C)(C)C(O)(CCc1ccc(Cl)cc1)Cn1cncn1` (stereo not drawn) [Tebuconazole], the “Solubility in Comparative Solvent B” value is reported as 26.5 weight %, the “Solubility in Comparative Solvent A” value is reported as 32.3 weight % and the “Solubility in Comparative Solvent C” value is reported as 16.0 weight %.
